{
  "source": "patent US20080070917A1",
  "about": "“METHODS FOR ADMINISTERING LEVOSIMENDAN” (priority 2005, published 2008)",
  "key": {"[1]": {"system": "subjects hospitalized with acute decompensation of heart failure", "assay": "Phase 3, double-blind, placebo-controlled study in acute decompensation of heart failure (Example 5)", "type": "in vivo, human", "protocol": "This was a Phase 3, double-blind, placebo-controlled, parallel-group study in subjects hospitalized with a primary or secondary admitting diagnosis of acute decompensation of heart failure. The treatment period was up to 24 hours for each subject with at least 90 days follow-up after the start of the study drug infusion. All baseline medications (including use of beta-blockers and other medications) were recorded for each patient. The study evaluated hospitalized subjects (n=600) with a primary or secondary admitting diagnosis of worsening heart failure, with symptoms at rest despite treatment with IV diuretic therapy. […] Infusion rates for background therapy of continuous IV diuretics, inotropes and vasodilators had to have been unchanged for at least two hours prior to the baseline evaluation. Left ventricular ejection fraction (EF) was required to be less than or equal to 35% as assessed within the previous 12 months. Subjects were randomized to either levosimendan (n=299) or placebo (n=301) in addition to standard-of-care. Levosimendan treatment was initiated with a total loading dose of […] administered over 10 minutes (6 mg/kg for subjects on concomitant IV vasodilators or inotropes at the start of the study drug infusion) followed by a continuous infusion of […] for the following 50 minutes. If the dose was well tolerated, the infusion rate was increased to 0.2 mg/kg/min for a further 23 hours. If the higher dose was not well tolerated it was reduced to […] and then further to 0.05 mg/kg/min if required. On completion of 24 hours the infusion is turned off abruptly.\nThe primary objective of this study was to compare the efficacy between levosimendan and placebo treatments using the clinical composite endpoint (CCE) incorporating a subject reported PGA at 6 hours, 24 hours and Day 5, combined with clinical criteria for worsening heart failure through 5 days after the start of study drug infusion. In contrast to REVIVE I, the was CCE included a PGA at 6 hours as part of the primary endpoint and diuretics at any time during the 5 day assessment period were included as rescue therapy.\nEpisodes of worsening heart failure treated with a rescue therapy were collected during the initial hospitalization until Day 5 or discharge whichever was later. Safety parameters such as adverse events (AEs), HR, […] (BP), routine laboratory tests, and ECG were monitored frequently up to 31 days, with hospitalization and mortality extended to 90 days after start of study drug infusion. Survival was monitored for all randomized subjects from Day 90 until the last subject underwent the final scheduled visit."}, "[2]": {"assay": "Unbound plasma fraction", "type": "in vitro ADME"}, "[3]": {"system": "CHF patients", "assay": "PK-PD meta-analysis (NONMEM, Emax model) of eight studies in CHF patients", "type": "in vivo, human", "settings": "for EC50: Homo sapiens, effective concentration (composite of levosimendan, OR-1855, OR-1896)", "protocol": "Data from eight studies (Studies 300102, 300103, 300105, 3001022, 3001024, 3001040, 3001058 (Group 1 and 2) and 3001058 (Group 4)) (335 CHF patients) were combined to generate the PK-PD dataset. Dose regimens included infusions of various doses (0.25-70.6 mg) and infusion durations (5 min-7 days), with or without an initial loading dose. In addition to plasma concentration-time data the PD variables utilized in the PK-PD evaluation were PCWP, CI, HR, SBP, and DBP.\nPopulation PK models were built using a non-linear mixed-effect population modelling approach with the NONMEM software. The sequence of modelling was such that levosimendan PK was modelled first. Then the levosimendan portion of the full PK model was fixed, and individual PK parameters were carried forward in order to simultaneously model the metabolites PK. In the PK model it was assumed that levosimendan is fully metabolized to OR-1855, which is further metabolized to OR-1896. A gut compartment with first-order input from the levosimendan compartment and first-order output to the OR 1855 compartment was incorporated to account for the considerable delay between levosimendan elimination and metabolite appearance. This delay represents transport of levosimendan from plasma to gut and further transit to colon, metabolism of levosimendan to OR-1855 in the colon, and the subsequent absorption of OR-1855 from the colon. Elimination of the metabolites and inter-conversion between the two metabolites were modelled as first-order processes (See, FIG. 1). A mixture model allowing different inter-conversion rates for slow and rapid acetylators was beneficial in describing the data.\nCovariates (fixed effects) such as demographic characteristics and patient attributes, for e.g. ejection fraction (EF), New York Heart Association classification (NYHA), serum bilirubin, and creatinine clearance etc. were tested individually in a stepwise method. The intra-subject effects or residual error was modelled as additive, proportional (constant coefficient of variation) or combination of the two for the PK model. The inter-subject effects were modelled as exponential error model.\nThe full PK models for levosimendan and its metabolites were fixed for the PD modelling. For each individual, plasma concentrations were calculated using the post-hoc PK parameter estimates for that individual. A maximal drug effect (Emax) model described by the following general equation was used to describe the relation between the estimated concentrations of drug and metabolites, and effect. E=Emax*Ceff/(EC50+Ceff) • Where: Ceff is the apparent effective concentration in the hypothetical effect compartment that may be a composite of drug and metabolite concentrations; EC50 is the effective concentration required to achieve 50% of Emax.\nThe equilibration rate constant (ke0) controls the time delay between the time courses of levosimendan concentration in the central compartment (Cp) and levosimendan concentration in the effect compartment (Clevo), and is expressed as dClevo/dT=ke0·(Cp−Clevo).\nThe contributions of the drug and the metabolites to the PD effects were modeled using a competitive agonist model that assumed same efficacy (Emax), but different potencies (EC50) for different compounds. A potency factor (RP) accounted for differences in potency and protein binding relative to levosimendan. […] Ceff=Clevo+RP1·COR-1855+RP2·COR-1896\nWhere RP1 and RP2 are the potencies of OR-1855 and OR-1896 relative to levosimendan, respectively.\nThe drug response was modelled as the absolute change from baseline and as the fractional change from baseline. The non-drug response was modelled either as a time dependent function or as an instantaneous response based on the following equations.\nWhere SSS is the maximum non-drug-related response. The exponent “a” represents the rate of onset of the non-drug response over time. […]"}, "[4]": {"system": "patients with New York Heart Association functional class II to III heart failure", "assay": "Double-blind, placebo-controlled study of a 24-hour levosimendan infusion in heart failure patients", "type": "in vivo, human", "protocol": "A double-blind, placebo-controlled, parallel group, single center study in patients with New York Heart Association functional class II to III heart failure was conducted. Patients were randomised in 1:1 ratio to receive either levosimendan or placebo. Study drug administration was initiated with a loading dose of 12 μg/kg of levosimendan or placebo delivered over 10 minutes. This was followed by a continuous infusion of 0.1 μg/kg/min for 50 minutes. If the dose was well tolerated the infusion rate was increased to 0.2 μg/kg/min for a further 23 hours. After the study drug was started, the hemodynamic assessments were repeated at 30 minutes, at two and six hours. The non-invasive hemodynamic assessments were repeated at 24-hours. Follow-up visits took place at 2, 3, 5, 7, 9 and 14 days from the beginning of the study. On these visits echocardiographic measurements were performed and blood pressure and heart rate were measured.\nAn Acuson Sequoia ultrasound system with 2.5-3.75 MHz probes was used for the Doppler echocardiographic measurements. Blood flow velocity curves were recorded at a sweep speed of 100 mm/s. Left ventricular ejection fraction was assessed by two-dimensional apical two- and four-chamber views with use of modified Simpson rule. Mitral flow velocity was assessed by pulsed wave Doppler from the apical four-chamber view by placing a 3-mm sample volume between the tip of the mitral leaflets in diastole. The following measurements were made over five consecutive cycles: maximal early and maximal late diastolic velocity and their ratio, duration of the late diastolic velocity wave, deceleration time and deceleration rate of early diastolic velocity. Peak velocities were defined as the highest point of the spectrum.\nBlood samples (4 ml) for natriuretic peptide (NT-proANP, NT-proBNP) measurements were taken into pre-cooled EDTA tubes. Samples were taken at baseline (0-sample) and on the first study day 30 min, 2 h, 6h and 24 h after the start of the infusion and in the mornings of days 2, 3, 5, 7, 9 and 14 after the start of the study drug infusion."}},
  "note": "Like-named read-outs stand apart in the source and are kept apart here.",
  "data": [
    {"smiles": "C[C@@H]1CC(=O)NN=C1c1ccc(NN=C(C#N)C#N)cc1", "note": "[levosimendan, (−)-enantiomer of [[4-(1,4,5,6-tetrahydro-4-methyl-6-oxo-3-pyridazinyl)phenyl]hydrazono]propanedinitrile]", "values": [
      {"measurement": "Proportion of patients reporting moderate to marked improvement in dyspnea", "setting": "[1]; at 6 hours (91/299), placebo/SOC 25.2%", "value": 30.4, "unit": "%"},
      {"measurement": "Improvement in self assessment (PGA) compared to placebo/SOC", "setting": "[1]; beta-blocked patients, over the first 5 days, p=0.001", "value": "significantly greater improvement"},
      {"measurement": "Improvement in self assessment (dyspnea) compared to placebo/SOC", "setting": "[1]; over the first 5 days, p=0.018", "value": "significantly greater improvement"},
      {"measurement": "Proportion of patients reporting moderate to marked improvement in PGA", "setting": "[1]; overall population, at 6 hours (85/299), placebo/SOC 23.9%", "value": 28.4, "unit": "%"},
      {"measurement": "Improvement in PGA compared to placebo/SOC", "setting": "[1]; overall population, over 5 days, p=0.002", "value": "significantly greater improvement"},
      {"measurement": "Difference in PGA improvement compared to placebo/SOC", "setting": "[1]; patients not receiving beta-blocker therapy (n=96)", "value": "not statistically significant"},
      {"measurement": "Difference in dyspnea improvement between treatment groups", "setting": "[1]; patients not receiving beta-blocker therapy, first 5 days", "value": "not statistically significant"},
      {"measurement": "Proportion reporting moderate to marked improvements in dyspnea compared to placebo/SOC", "setting": "[1]; patients receiving a beta-blocker at baseline, at 6 hours", "value": "greater proportion"},
      {"measurement": "Proportion of patients reporting moderate to marked improvements in PGA", "setting": "[1]; patients receiving a beta-blocker at baseline, at 6 hours, placebo/SOC 34%", "value": 44, "unit": "%"},
      {"measurement": "Improvement in dyspnea compared to placebo/SOC", "setting": "[1]; patients receiving beta-blockers, over the first 5 days, p=0.0016", "value": "significantly greater improvement"},
      {"measurement": "Other secondary endpoints, except 90-day mortality", "setting": "[1]; versus placebo", "value": "trended in favor of levosimendan but did not reach statistical significance"},
      {"measurement": "Unbound plasma fraction", "setting": "[2]", "value": 0.025},
      {"measurement": "EC50", "setting": "[3]; read-out: Post-hoc Mean EC50, CI", "value": 0.09, "unit": "µg/mL"},
      {"measurement": "EC50", "setting": "[3]; read-out: Post-hoc Mean EC50, DBP", "value": 0.154, "unit": "µg/mL"},
      {"measurement": "EC50", "setting": "[3]; read-out: Post-hoc Mean EC50, HR", "value": 0.198, "unit": "µg/mL"},
      {"measurement": "EC50", "setting": "[3]; read-out: Post-hoc Mean EC50, PCWP", "value": 0.0511, "unit": "µg/mL"},
      {"measurement": "EC50", "setting": "[3]; read-out: Post-hoc Mean EC50, SBP", "value": 0.047, "unit": "µg/mL"},
      {"measurement": "Post-hoc Mean Emax, CI", "setting": "[3]; baseline mean 2.21", "value": 1.15, "unit": "L/m^2/min"},
      {"measurement": "Post-hoc Mean Emax, PCWP", "setting": "[3]; baseline mean 20.8", "value": "−7.8", "unit": "mmHg"},
      {"measurement": "Post-hoc Mean Emax, DBP", "setting": "[3]; baseline mean 71", "value": "−13.3", "unit": "mmHg"},
      {"measurement": "Post-hoc Mean Emax, HR", "setting": "[3]; baseline mean 76", "value": 18, "unit": "Bpm"},
      {"measurement": "Post-hoc Mean Emax, SBP", "setting": "[3]; baseline mean 118", "value": "−7.1", "unit": "mmHg"},
      {"measurement": "Maintenance of beneficial hemodynamic and neurohormonal effects", "setting": "[4]; after levosimendan administration", "value": "up to two weeks"},
      {"measurement": "Time of lowest echocardiographically estimated PCWP", "setting": "[4]; after starting the infusion", "value": 2, "unit": "days"},
      {"measurement": "Day of lowest plasma NT-proANP level", "setting": "[4]; human, in vivo", "value": 3, "unit": "days"},
      {"measurement": "Day of lowest plasma NT-proBNP level", "setting": "[4]; human, in vivo", "value": 2, "unit": "days"},
      {"measurement": "Duration of treatment effect on NT-proANP, linear model", "setting": "[4]; human, in vivo", "value": 16, "unit": "days"},
      {"measurement": "Duration of treatment effect on NT-proBNP, linear model", "setting": "[4]; human, in vivo", "value": 12, "unit": "days"},
      {"measurement": "Time of highest CO value estimated by echocardiography", "setting": "[4]; human, in vivo", "value": "at the end of the 24-hour infusion"}
    ]}
  ]
}
